Data published in patent US8328934B2, “Crystal of GTP Cyclohydrolase Type IB” (priority 2007, dated 2012).
Like-named read-outs stand apart in the source and are kept apart here.

Columns and labels:
Type in all cases: biochemical
B. subtilis GCYH-IB [1] = molecular target: T1, B. subtilis GCYH-IB (Bacillus subtilis, UniProt P94398); settings: for relative activity (%): at the metal concentration for optimal activity, relative to Mn(II); for metal ion supports catalysis: apoenzyme assayed with specific metal ions over a broad concentration range; for [Metal] (metal concentration for optimal activity): apoenzyme 2 μM, metal 0.1 μM-4 mM, 0.1 mM GTP
T1 construct: His6 (cleaved yes); made in house; host or cells: E. coli BL21 (DE3), pET-30 Xa/LIC plasmid pSAB-9-61
T1 sequence (P94398 1-304): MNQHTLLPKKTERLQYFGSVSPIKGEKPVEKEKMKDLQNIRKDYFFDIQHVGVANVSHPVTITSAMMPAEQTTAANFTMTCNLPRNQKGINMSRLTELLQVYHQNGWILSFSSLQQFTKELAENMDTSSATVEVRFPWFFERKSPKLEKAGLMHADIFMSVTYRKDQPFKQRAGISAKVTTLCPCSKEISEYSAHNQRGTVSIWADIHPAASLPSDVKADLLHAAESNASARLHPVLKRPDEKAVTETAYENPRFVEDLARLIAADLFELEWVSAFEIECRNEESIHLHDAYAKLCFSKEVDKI
Method: It is well established that GCYH-IA uses a bound Zn^2+ ion for activity. Nichol et al., 1985. To investigate the metal dependence of GCYH-IB, the purified recombinant B. subtilis enzyme was assayed for activity in the presence of a variety of metal ions or EDTA. […] To obtain unambiguous, quantitative data on the effect of various metal ions on catalytic activity, the enzyme was first demetallated by dialyzing against an EDTA/Chelex-containing buffer to generate the apoenzyme, which was then assayed in the presence of specific metal ions over a broad concentration range.
(§1) Enzyme Activity Assays: All chemicals were of analytical, metal-free grade from Sigma or Fisher. All solutions were prepared with Milli-Q water (18.2 MΩ) and treated with Chelex-100 (BioRad) to remove contaminating metals. Glassware were soaked in nitric acid (10%), then EDTA (5 mM) and rinsed liberally with Chelex-treated Milli-Q water before use. Activity assays were conducted as described previously (El Yacoubi et al, 2006) using either variable concentrations of metal or EDTA (5 mM), and 0.1 mM GTP.
(§2) Apoenzyme Preparation: Metal ions were removed from B. subtilis and N. gonorrhoeae GCYH-IB by incubating the purified, recombinant protein (0.5 ml) with EDTA (5 mM, 1 hr, 21° C.) followed by dialysis thrice against a 4-liter solution of Tris-HCl (50 mM, pH 8.0), KCl (50 mM), EDTA (5 mM) and a few grams of Chelex-100. The resulting apoenzyme was dialyzed thrice against 3 L of Tris-HCl (50 mM, pH 8.0), KCl (50 mM), and Chelex-100 to remove EDTA and passed through Chelex-100 resin (5 ml protein solution per 3 ml resin) prior to activity assays. Protein concentrations were determined spectrophotometrically.
Metal Activation Studies: The B. subtilis apoenzyme (2 μM) was incubated with varying concentrations (0.1 μM-4 mM) of metal chlorides (MnCl2, ZnCl2, MgCl2, NiCl2, CaCl2, CdCl2, CoCl2, CuCl2, CoCl3, FeCl3) or Fe(SO4) in standard buffer (100 mM HEPES, pH 8.0, 100 mM KCl) for 10 min at 37 C, and assayed for activity as described above. All assays involving Fe^2+ were conducted in an anaerobic chamber with degassed and N2-purged buffers.

B. subtilis GCYH-IB [2] = molecular target: T1, B. subtilis GCYH-IB; test: Effect of zinc on GCYH-IB activity in the presence of Mn(II); settings: 600 μM Mn(II)
Method: (§3) The presence of both Zn^2+ and Mn^2+ in a reaction assay results in diminished activity (i.e. Zn^2+ is an inhibitor versus Mn^2+, Table 6). All of the metals bind the enzymes with low affinity, such that running the protein over a G-25 column or dialyzing against metal free buffer removed the protein bound metal.
as §1, §2

N. gonorrhoeae GCYH-IB = molecular target: T2, N. gonorrhoeae GCYH-IB (Neisseria gonorrhoeae, UniProt Q5F9K6); test: as above; settings: 600 μM Mn(II)
T2 construct: His6 (cleaved yes); made in house; host or cells: E. coli BL21 (DE3), pET-30 Xa/LIC plasmid pSAB-8-142
T2 sequence (Q5F9K6 1-257): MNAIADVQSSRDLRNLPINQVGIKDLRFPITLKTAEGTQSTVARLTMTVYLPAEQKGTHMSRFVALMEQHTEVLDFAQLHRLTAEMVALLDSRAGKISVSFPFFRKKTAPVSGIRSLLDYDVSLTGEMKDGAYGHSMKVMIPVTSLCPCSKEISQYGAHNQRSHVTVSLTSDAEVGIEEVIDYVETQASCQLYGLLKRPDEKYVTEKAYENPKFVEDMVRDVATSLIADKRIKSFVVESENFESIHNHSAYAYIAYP
Method: as §3, §1, §2

[Fe+3] [Fe(III)]
relative activity (%) (B. subtilis GCYH-IB [1]): 0%

[Cu+2] [Cu(II)]
metal ion supports catalysis (B. subtilis GCYH-IB [1]): fail to support activity | relative activity (%) (B. subtilis GCYH-IB [1]): 0%

[Ca+2] [Ca(II)]
metal ion supports catalysis (B. subtilis GCYH-IB [1]): fail to support activity | relative activity (%) (B. subtilis GCYH-IB [1]): 0%

[Cd+2] [Cd(II)]
metal ion supports catalysis (B. subtilis GCYH-IB [1]): fail to support activity | relative activity (%) (B. subtilis GCYH-IB [1]): 0%

[Mg+2] [Mg(II)]
[Metal] (metal concentration for optimal activity) (B. subtilis GCYH-IB [1]): 100 µM | metal ion supports catalysis (B. subtilis GCYH-IB [1]): catalysis is supported | relative activity (%) (B. subtilis GCYH-IB [1]): 43 ± 4%

[Fe+2] [Fe(II)]
[Metal] (metal concentration for optimal activity) (B. subtilis GCYH-IB [1]): 1000 µM | relative activity (%) (B. subtilis GCYH-IB [1]): 75 ± 8%

[Co+3] [Co(III)]
relative activity (%) (B. subtilis GCYH-IB [1]): 0%

[Mn+2] [Mn(II)]
[Metal] (metal concentration for optimal activity) (B. subtilis GCYH-IB [1]): 500 µM | metal ion supports catalysis (B. subtilis GCYH-IB [1]): catalysis is supported | relative activity (%) (B. subtilis GCYH-IB [1]): 100%

[Co+2] [Co(II)]
[Metal] (metal concentration for optimal activity) (B. subtilis GCYH-IB [1]): 100 µM | relative activity (%) (B. subtilis GCYH-IB [1]): 24 ± 3%

O=C(O)CN(CCN(CC(=O)O)CC(=O)O)CC(=O)O [EDTA, reference compound]
activity in the presence of EDTA (B. subtilis GCYH-IB [1]): no activity was observed

[Ni+2] [Ni(II)]
[Metal] (metal concentration for optimal activity) (B. subtilis GCYH-IB [1]): 100 µM | metal ion supports catalysis (B. subtilis GCYH-IB [1]): catalysis is supported | relative activity (%) (B. subtilis GCYH-IB [1]): 9.8 ± 1.3%

[Zn+2] [Zn(II)]
optimum metal concentration required for catalysis, fold lower than for Mn^2+ (B. subtilis GCYH-IB [1]; Zn^2+ versus Mn^2+): roughly 10 fold | [Metal] (metal concentration for optimal activity) (B. subtilis GCYH-IB [1]): 50 µM | metal ion supports catalysis (B. subtilis GCYH-IB [1]): catalysis is supported | relative activity (%) (B. subtilis GCYH-IB [1]): 14 ± 1% | relative activity (%) (B. subtilis GCYH-IB [2]; 0.5 μM zinc): 84% | relative activity (%) (B. subtilis GCYH-IB [2]; 1 μM zinc): 41% | relative activity (%) (B. subtilis GCYH-IB [2]; 2 μM zinc): 34% | relative activity (%) (B. subtilis GCYH-IB [2]; 4 μM zinc): 35% | relative activity (%) (B. subtilis GCYH-IB [2]; 10 μM zinc): 35% | relative activity (%) (B. subtilis GCYH-IB [2]; 20 μM zinc): 26% | relative activity (%) (B. subtilis GCYH-IB [2]; 40 μM zinc): 23% | relative activity (%) (N. gonorrhoeae GCYH-IB; 0.5 μM zinc): 93% | relative activity (%) (N. gonorrhoeae GCYH-IB; 1 μM zinc): 68% | relative activity (%) (N. gonorrhoeae GCYH-IB; 2 μM zinc): 57% | relative activity (%) (N. gonorrhoeae GCYH-IB; 4 μM zinc): 47% | relative activity (%) (N. gonorrhoeae GCYH-IB; 10 μM zinc): 53% | relative activity (%) (N. gonorrhoeae GCYH-IB; 20 μM zinc): 45% | relative activity (%) (N. gonorrhoeae GCYH-IB; 40 μM zinc): 45%
